Target: human PDE4D catalytic domain (Homo sapiens (Human), UniProt Q08499)
Test: PDE4 Assay (TR-FRET, FAM-cAMP cleavage)
Type: biochemical
Conditions: human PDE4D catalytic domain (UniProt Q08499 [S380-L740]); 50% inhibition of substrate cleavage; read-out: PDE4 IC50 range
Procedure, shortened: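 PDE4D catalytic domain (S380-L740) incubated briefly with unlabelled cAMP plus FAM-cAMP and titrated compound. Reaction stopped with binding buffer holding metal-ion nanoparticles that bind AMP phospho groups and Tb donor, and AMP formation read by TR-FRET. IC50 versus controls, reported as ranges (nM).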

human PDE4D catalytic domain, sequence (Q08499 380-740): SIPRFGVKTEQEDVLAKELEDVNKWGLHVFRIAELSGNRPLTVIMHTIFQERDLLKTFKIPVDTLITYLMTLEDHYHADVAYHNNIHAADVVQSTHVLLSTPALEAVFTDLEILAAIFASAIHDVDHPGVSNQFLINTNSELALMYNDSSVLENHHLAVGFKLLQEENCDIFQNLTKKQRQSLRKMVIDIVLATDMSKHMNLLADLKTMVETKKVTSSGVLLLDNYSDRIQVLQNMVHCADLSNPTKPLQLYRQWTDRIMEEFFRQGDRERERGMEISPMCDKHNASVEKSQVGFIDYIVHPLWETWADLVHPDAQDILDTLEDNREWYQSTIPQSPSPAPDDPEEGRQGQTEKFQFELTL

Row | Compound | IC50 [nM]
1 | CCn1nc(CC(C)(C)COC(=O)c2ccc(S(=O)(=O)C3CCCC3)cc2)c2c1C(=O)NCC1(CCOCC1)C2 [Example 209, [3-(1-ethyl-8-oxo-spiro[6,7-dihydro-4H-pyrazolo[3,4-c]azepine-5,4′-tetrahydropyran]-3-yl)-2,2-dimethyl-propyl] 4-cyclopentylsulfonylbenzoate] | < 100
2 | CCn1nc(CC(C)(C)COC(=O)c2cccc(S(=O)(=O)N3CCCC3)c2)c2c1C(=O)NCC1(CCOCC1)C2 [Example 210, [3-(1-ethyl-8-oxo-spiro[6,7-dihydro-4H-pyrazolo[3,4-c]azepine-5,4′-tetrahydropyran]-3-yl)-2,2-dimethyl-propyl] 3-pyrrolidin-1-ylsulfonylbenzoate] | < 100
3 | CCn1nc(CC(C)(C)COC(=O)c2ccc(S(=O)(=O)N3CCCC3)cc2)c2c1C(=O)NCC1(CCOCC1)C2 [Example 211, [3-(1-ethyl-8-oxo-spiro[6,7-dihydro-4H-pyrazolo[3,4-c]azepine-5,4′-tetrahydropyran]-3-yl)-2,2-dimethyl-propyl] 4-pyrrolidin-1-ylsulfonylbenzoate] | < 100
4 | CCn1nc(CC(C)(C)COC(=O)c2cccc(S(=O)(=O)N3CCOCC3)c2)c2c1C(=O)NCC1(CCOCC1)C2 [Example 212, [3-(1-ethyl-8-oxo-spiro[6,7-dihydro-4H-pyrazolo[3,4-c]azepine-5,4′-tetrahydropyran]-3-yl)-2,2-dimethyl-propyl] 3-morpholinosulfonylbenzoate] | < 100
5 | CCn1nc(CC(C)(C)COC(=O)c2ccc(S(=O)(=O)N3CCOCC3)cc2)c2c1C(=O)NCC1(CCOCC1)C2 [Example 213, [3-(1-ethyl-8-oxo-spiro[6,7-dihydro-4H-pyrazolo[3,4-c]azepine-5,4′-tetrahydropyran]-3-yl)-2,2-dimethyl-propyl] 4-morpholinosulfonylbenzoate] | < 100
6 | CCn1nc(CC(C)(C)COC(=O)c2ccc(S(=O)(=O)N(C)Cc3ccccc3)cc2)c2c1C(=O)NCC1(CCOCC1)C2 [Example 214, [3-(1-ethyl-8-oxo-spiro[6,7-dihydro-4H-pyrazolo[3,4-c]azepine-5,4′-tetrahydropyran]-3-yl)-2,2-dimethyl-propyl] 4-[benzyl(methyl)sulfamoyl] benzoate] | < 100
7 | CCn1nc(CC(C)(C)COC(=O)c2cccc(S(=O)(=O)N3CCN(C(C)=O)CC3)c2)c2c1C(=O)NCC1(CCOCC1)C2 [Example 215, [3-(1-ethyl-8-oxo-spiro[6,7-dihydro-4H-pyrazolo[3,4-c]azepine-5,4′-tetrahydropyran]-3-yl)-2,2-dimethyl-propyl] 3-(4-acetylpiperazin-1-yl)sulfonylbenzoate] | < 100
8 | CCn1nc(CC(C)(C)COC(=O)c2ccc(S(=O)(=O)N3CCN(C(C)=O)CC3)cc2)c2c1C(=O)NCC1(CCOCC1)C2 [Example 216, [3-(1-ethyl-8-oxo-spiro[6,7-dihydro-4H-pyrazolo[3,4-c]azepine-5,4′-tetrahydropyran]-3-yl)-2,2-dimethyl-propyl] 4-(4-acetylpiperazin-1-yl)sulfonylbenzoate] | < 100
9 | CCn1nc(CC(C)(C)COC(=O)c2ccc(C(N)=O)cc2)c2c1C(=O)NCC1(CCOCC1)C2 [Example 218, [3-(1-ethyl-8-oxo-spiro[6,7-dihydro-4H-pyrazolo[3,4-c]azepine-5,4′-tetrahydropyran]-3-yl)-2,2-dimethyl-propyl] 4-carbamoylbenzoate] | < 100
10 | CCn1nc(CC(C)(C)COC(=O)c2ccc(C(=O)NC)cc2)c2c1C(=O)NCC1(CCOCC1)C2 [Example 219, [3-(1-ethyl-8-oxo-spiro[6,7-dihydro-4H-pyrazolo[3,4-c]azepine-5,4′-tetrahydropyran]-3-yl)-2,2-dimethyl-propyl] 4-(methylcarbamoyl)benzoate] | < 100
11 | CCn1nc(CC(C)(C)COC(=O)c2ccc(C(=O)N(C)C)cc2)c2c1C(=O)NCC1(CCOCC1)C2 [Example 220, [3-(1-ethyl-8-oxo-spiro[6,7-dihydro-4H-pyrazolo[3,4-c]azepine-5,4′-tetra-hydropyran]-3-yl)-2,2-dimethyl-propyl] 4-(di-methylcarbamoyl)benzoate] | < 100
12 | CCn1nc(CC(C)(C)COC(=O)c2ccc(C(=O)N3CCCC3)cc2)c2c1C(=O)NCC1(CCOCC1)C2 [Example 221, [3-(1-ethyl-8-oxo-spiro[6,7-dihydro-4H-pyrazolo[3,4-c]azepine-5,4′-tetrahydro-pyran]-3-yl)-2,2-dimethyl-propyl] 4-(pyrrolidine-1-carbonyl)benzoate] | < 100
13 | CCn1nc(CC(C)(C)COC(=O)c2ccc(C(=O)N3CCCCC3)cc2)c2c1C(=O)NCC1(CCOCC1)C2 [Example 222, [3-(1-ethyl-8-oxo-spiro[6,7-dihydro-4H-pyrazolo[3,4-c]azepine-5,4′-tetrahydro-pyran]-3-yl)-2,2-dimethyl-propyl] 4-(piperidine-1-carbonyl)benzoate] | < 100
14 | CCn1nc(CC(C)(C)COC(=O)c2ccc(C(=O)N3CCOCC3)cc2)c2c1C(=O)NCC1(CCOCC1)C2 [Example 223, [3-(1-ethyl-8-oxo-spiro[6,7-dihydro-4H-pyrazolo[3,4-c]azepine-5,4′-tetrahydropyran]-3-yl)-2,2-dimethyl-propyl] 4-(morpholine-4-carbonyl)benzoate] | < 100
15 | CCn1nc(CC(C)(C)COC(=O)c2ccc(C(=O)N3CCN(C)CC3)cc2)c2c1C(=O)NCC1(CCOCC1)C2 [Example 224, [3-(1-ethyl-8-oxo-spiro[6,7-dihydro-4H-pyrazolo[3,4-c]azepine-5,4′-tetrahydro-pyran]-3-yl)-2,2-dimethyl-propyl] 4-(4-methyl-piperazine-1-carbonyl)-benzoate] | < 100
16 | CCn1nc(CC(C)(C)COC(=O)c2ccc(C(=O)N3CCN(C(C)=O)CC3)cc2)c2c1C(=O)NCC1(CCOCC1)C2 [Example 225, [3-(1-ethyl-8-oxo-spiro[6,7-dihydro-4H-pyrazolo[3,4-c]azepine-5,4'-tetrahydropyran]-3-yl)-2,2-dimethyl-propyl] 4-(4-acetylpiperazine-1-carbonyl)benzoate] | < 100
17 | CCn1nc(CC(C)(C)COC(=O)c2cccc(C(N)=O)c2)c2c1C(=O)NCC1(CCOCC1)C2 [Example 227, [3-(1-ethyl-8-oxo-spiro[6,7-dihydro-4H-pyrazolo[3,4-c]azepine-5,4′-tetrahydropyran]-3-yl)-2,2-dimethyl-propyl] 3-carbamoylbenzoate] | < 100
18 | CCn1nc(CC(C)(C)COC(=O)c2cccc(C(=O)NC)c2)c2c1C(=O)NCC1(CCOCC1)C2 [Example 228, [3-(1-ethyl-8-oxo-spiro[6,7-dihydro-4H-pyrazolo[3,4-c]azepine-5,4′-tetrahydropyran]-3-yl)-2,2-dimethyl-propyl] 3-(methylcarbamoyl)benzoate] | < 100
19 | CCn1nc(CC(C)(C)COC(=O)c2cccc(C(=O)N(C)C)c2)c2c1C(=O)NCC1(CCOCC1)C2 [Example 229, [3-(1-ethyl-8-oxo-spiro[6,7-dihydro-4H-pyrazolo[3,4-c]azepine-5,4′-tetrahydro-pyran]-3-yl)-2,2-dimethyl-propyl] 3-(dimethyl-carbamoyl)benzoate] | < 100
20 | CCn1nc(CC(C)(C)COC(=O)c2cccc(C(=O)N3CCCC3)c2)c2c1C(=O)NCC1(CCOCC1)C2 [Example 230, [3-(1-ethyl-8-oxo-spiro[6,7-dihydro-4H-pyrazolo[3,4-c]azepine-5,4′-tetrahydro-pyran]-3-yl)-2,2-dimethyl-propyl] 3-(pyrrolidine-1-carbonyl)benzoate] | < 100
21 | CCn1nc(CC(C)(C)COC(=O)c2cccc(C(=O)N3CCCCC3)c2)c2c1C(=O)NCC1(CCOCC1)C2 [Example 231, [3-(1-ethyl-8-oxo-spiro[6,7-dihydro-4H-pyrazolo[3,4-c]azepine-5,4′-tetrahydro-pyran]-3-yl)-2,2-dimethyl-propyl] 3-(piperidine-1-carbonyl)benzoate] | < 100
22 | CCn1nc(CC(C)(C)COC(=O)c2cccc(C(=O)N3CCOCC3)c2)c2c1C(=O)NCC1(CCOCC1)C2 [Example 232, [3-(1-ethyl-8-oxo-spiro[6,7-dihydro-4H-pyrazolo[3,4-c]azepine-5,4′-tetrahydro-pyran]-3-yl)-2,2-dimethyl-propyl] 3-(morpholine-4-carbonyl)benzoate] | < 100
23 | CCn1nc(CC(C)(C)COC(=O)c2cccc(C(=O)N3CCN(C)CC3)c2)c2c1C(=O)NCC1(CCOCC1)C2 [Example 233, [3-(1-ethyl-8-oxo-spiro[6,7-dihydro-4H-pyrazolo[3,4-c]azepine-5,4′-tetrahydro-pyran]-3-yl)-2,2-dimethyl-propyl] 3-(4-methyl-piperazine-1-carbonyl)-benzoate] | < 100
24 | CCn1nc(CC(C)(C)COC(=O)c2cccc(C(=O)N3CCN(C(C)=O)CC3)c2)c2c1C(=O)NCC1(CCOCC1)C2 [Example 234, [3-(1-ethyl-8-oxo-spiro[6,7-dihydro-4H-pyrazolo[3,4-c]azepine-5,4′-tetrahydropyran]-3-yl)-2,2-dimethyl-propyl] 3-(4-acetylpiperazine-1-carbonyl)benzoate] | < 100
25 | CCn1nc(CCCOC(=O)c2cocn2)c2c1C(=O)NCC1(CCOCC1)C2 [Example 235, 3-(1-ethyl-8-oxo-spiro[6,7-dihydro-4H-pyrazolo[3,4-c]azepine-5,4′-tetrahydro-pyran]-3-yl)propyl oxazole-4-carboxylate] | < 100
26 | CCn1nc(CCCOC(=O)C2CCOC2)c2c1C(=O)NCC1(CCOCC1)C2 (stereo not drawn) [Example 236, 3-(1-ethyl-8-oxo-spiro[6,7-dihydro-4H-pyrazolo[3,4-c]azepine-5,4′-tetrahydro-pyran]-3-yl)propyl tetrahydrofuran-3-carboxylate] | < 100
27 | CCn1nc(CCCOC(=O)c2ccn(C)n2)c2c1C(=O)NCC1(CCOCC1)C2 [Example 237, 3-(1-ethyl-8-oxo-spiro[6,7-dihydro-4H-pyrazolo[3,4-c]azepine-5,4′-tetrahydropyran]-3-yl)propyl 1-methylpyrazole-3-carboxylate] | < 100

— patent US10793580B2, “Substituted pyrazoloazepin-8-ones and their use as phosphodiesterase inhibitors” (LEO Pharma A/S, priority 2016, dated 2020)
